Columns and labels:
[1] = biological target: T1, Bile acid receptor (Homo sapiens, UniProt Q96RI1); experiment: Agonist activity at FXR (unknown origin) expressed in human HepG2 cells co-transfected with human RXR incubated for 24 hrs by cell-based luciferase transactivation assay
T1 sequence (Q96RI1 whole entry): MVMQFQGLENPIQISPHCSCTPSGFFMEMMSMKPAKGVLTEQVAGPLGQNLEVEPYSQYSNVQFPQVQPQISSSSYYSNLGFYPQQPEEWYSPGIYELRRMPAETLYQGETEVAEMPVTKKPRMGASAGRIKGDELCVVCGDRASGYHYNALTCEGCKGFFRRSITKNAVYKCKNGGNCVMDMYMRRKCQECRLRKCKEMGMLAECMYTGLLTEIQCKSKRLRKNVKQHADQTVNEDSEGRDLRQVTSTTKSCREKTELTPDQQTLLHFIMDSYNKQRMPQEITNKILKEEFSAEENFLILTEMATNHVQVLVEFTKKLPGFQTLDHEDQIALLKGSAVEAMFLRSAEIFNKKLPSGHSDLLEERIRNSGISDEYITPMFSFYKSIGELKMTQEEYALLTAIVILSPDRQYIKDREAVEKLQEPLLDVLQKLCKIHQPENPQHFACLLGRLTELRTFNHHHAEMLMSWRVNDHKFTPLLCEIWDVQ

[2] = biological target: T2, Solute carrier family 22 member 12 (Homo sapiens, UniProt Q96S37); conditions: HEK293, human, 8 min, read-out: INH
T2 sequence (Q96S37 whole entry): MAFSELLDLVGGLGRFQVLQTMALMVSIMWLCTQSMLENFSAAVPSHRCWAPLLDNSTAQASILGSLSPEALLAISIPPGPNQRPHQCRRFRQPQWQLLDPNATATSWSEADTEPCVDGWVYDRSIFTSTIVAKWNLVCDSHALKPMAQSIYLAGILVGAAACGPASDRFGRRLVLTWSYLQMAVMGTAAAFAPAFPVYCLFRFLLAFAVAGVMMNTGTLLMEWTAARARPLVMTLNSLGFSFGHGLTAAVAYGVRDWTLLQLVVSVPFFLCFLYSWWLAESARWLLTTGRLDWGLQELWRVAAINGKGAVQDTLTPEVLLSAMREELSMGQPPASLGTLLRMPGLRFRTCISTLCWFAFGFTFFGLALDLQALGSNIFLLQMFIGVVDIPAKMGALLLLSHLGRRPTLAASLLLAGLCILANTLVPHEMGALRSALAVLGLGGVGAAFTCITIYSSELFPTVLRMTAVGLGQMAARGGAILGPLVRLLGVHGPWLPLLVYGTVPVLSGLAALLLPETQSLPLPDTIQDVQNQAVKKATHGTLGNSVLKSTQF
Description: Inhibition of URAT1 in human HEK293 cells assessed as inhibition of uric acid uptake at 1000 nM incubated for 8 mins by Microbeta scintillation counting analysis

[3] = biological target: T2, Solute carrier family 22 member 12; conditions: HEK293, human, 8 min, read-out: INH; remark: listed apart in the source
Description: Inhibition of URAT1 in human HEK293 cells assessed as inhibition of uric acid uptake at 100 nM incubated for 8 mins by Microbeta scintillation counting analysis

[4] = biological target: T2, Solute carrier family 22 member 12; conditions: HEK293, human, 8 min, read-out: INH; remark: listed apart in the source

EC50 [1] [µM] | inhibition at 1 µM [2] [%] | inhibition at 0.1 µM [3] [%] | inhibition at 0.3 µM [4] [%] | SMILES
17.8 | 31 | 3 | 18 | CCc1oc2ccccc2c1C(=O)c1cc(Br)c(OCc2cccc(OCC(=O)O)c2)c(Br)c1
15.6 | 12 | 1 | 3 | CCc1oc2ccccc2c1C(=O)c1ccc(OCc2cccc(C(=O)O)c2)cc1
10.3 | 23 | 1 | 8 | CCc1oc2ccccc2c1C(=O)c1cc(Br)c(OCc2ccc(C(=O)O)cc2)c(Br)c1
 | 45 | 6 | 23 | CCc1oc2ccccc2c1C(=O)c1cc(Br)c(OCCCC(=O)O)c(Br)c1

SMILES | EC50 [1] [µM] | inhibition at 1 µM [2] [%] | inhibition at 0.1 µM [3] [%] | inhibition at 0.3 µM [4] [%]
CCc1oc2ccccc2c1C(=O)c1cc(Br)c(O)c(Br)c1 [BENZBROMARONE] |  | 72 | 12 | 31
